Measured values as given in patent US20260226019A1, “NEGATIVE ALLOSTERIC MODULATORS OF METABOTROPIC GLUTAMATE RECEPTOR 2” (Vanderbilt University, priority 2023, published 2026).

What follows are compounds tested against T1, human mGlu2 (Homo sapiens, UniProt Q14416) (assay: mGlu GIRK cell-based thallium flux assay, human mGlu2). Conditions: HEK-293 cells co-expressing human mGlu2 and GIRK, EC80 glutamate, single experiment.
T1 construct: expressed in transfected cells; host or cells: HEK-293 stably co-expressing GIRK channels
T1 sequence (Q14416 19-872): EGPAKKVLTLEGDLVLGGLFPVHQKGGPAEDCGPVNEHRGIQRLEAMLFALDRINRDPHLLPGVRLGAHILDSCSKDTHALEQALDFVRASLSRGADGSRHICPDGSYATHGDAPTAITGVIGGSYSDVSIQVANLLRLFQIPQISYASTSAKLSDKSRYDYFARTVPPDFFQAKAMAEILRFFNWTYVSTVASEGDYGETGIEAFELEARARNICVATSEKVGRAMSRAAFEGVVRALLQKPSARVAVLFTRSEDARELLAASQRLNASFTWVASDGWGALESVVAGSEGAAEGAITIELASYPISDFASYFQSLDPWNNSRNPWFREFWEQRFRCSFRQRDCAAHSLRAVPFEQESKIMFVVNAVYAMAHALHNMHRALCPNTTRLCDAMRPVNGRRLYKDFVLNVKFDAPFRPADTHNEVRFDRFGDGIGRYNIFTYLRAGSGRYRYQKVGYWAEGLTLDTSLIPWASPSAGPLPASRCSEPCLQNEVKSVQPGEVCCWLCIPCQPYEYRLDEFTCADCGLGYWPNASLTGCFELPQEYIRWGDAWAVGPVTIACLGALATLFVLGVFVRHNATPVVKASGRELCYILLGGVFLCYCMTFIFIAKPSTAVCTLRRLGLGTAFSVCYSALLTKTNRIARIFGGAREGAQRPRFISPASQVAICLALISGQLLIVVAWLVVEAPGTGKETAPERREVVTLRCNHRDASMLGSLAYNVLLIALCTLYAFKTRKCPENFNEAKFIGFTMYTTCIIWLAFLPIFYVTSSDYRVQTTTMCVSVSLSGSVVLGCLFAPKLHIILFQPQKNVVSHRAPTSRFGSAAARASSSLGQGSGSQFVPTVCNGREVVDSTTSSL
Procedure: Human embryonic kidney (HEK-293) cell lines stably co-expressing human or rat mGlu2 and G protein-coupled inwardly rectifying potassium (GIRK) channels, or human mGlu3 and GIRK, were used for in vitro evaluation of compound activity in thallium flux assay using a fluorescent thallium indicator dye.
The day before the assay, GIRK cells co-expressing human mGlu3, human or rat mGlu2, as described above, were plated in black-walled, clear-bottomed, amine-coated 384-well plates at a density of 15,000 cells/[…]/well in the assay medium (glutamine-depleted basal DMEM supplemented with 10% dialyzed FBS, 20 mM HEPES, 1 mM sodium pyruvate). Cells were incubated at 37° C. in the presence of 5% CO2. The next day, assay buffer (Hanks balanced salt solution, 20 mM HEPES, 4.16 mM sodium bicarbonate, pH 7.2) was prepared to dilute compounds and Thallos AM fluorescent dye solution. The 2× Thallos dye solution (final concentration 0.34 μM to the cells) was prepared by mixing the dye stock (2.97 mM in DMSO) to 1:1 with 10% pluronic acid before adding to the assay buffer. Cells were washed with assay buffer using a microplate washer to remove the medium, resulting in 20 μL of buffer remaining in each well. […] During the cell dye loading incubation period, a 10-point concentration serial dilution of compound was created from a 10 mM DMSO compound stock by performing a 1:3 serial dilution in DMSO using the Bravo liquid handler. The 2× compound plate was generated by transferring 0.24 μL of the diluted compound in each well to a daughter plate using an Echo acoustic liquid handler. This is further diluted in 40 μL assay buffer, resulting in a range from […] to 1.5 nM final concentration in the assay. The agonist plate (5×) was prepared to include EC80 glutamate concentration (a concentration to elicit 80% of a maximally effective glutamate concentration) in thallium buffer (125 mM sodium bicarbonate, 1 mM magnesium sulfate, 1.8 mM calcium sulfate, 5 mM glucose, 10 mM HEPES, pH 7.2, 12.5 mM thallium sulfate).
After dye-loading, cell plates were washed with assay buffer to remove excess extracellular dye using a microplate washer, resulting in 20 μL of buffer remaining in each well. After a ten-minute equilibration period, cell, compound and agonist plates were loaded into a Hamamatsu μCell kinetic imaging plate reader equipped with liquid handler to monitor fluorescence changes at 480 nm excitation and 540 nm emission settings. Briefly, after collection of baseline fluorescence, 20 μL of compound was added and incubated for two minutes and twenty seconds. This is immediately followed by adding 10 μL of glutamate-thallium buffer to the wells containing compound. The fluorescent signal was monitored an additional 2.5 minutes after the glutamate addition. Multiple reference wells containing no compound received either no glutamate (for a baseline reference), EC80 glutamate, or ECmax glutamate (for normalization to maximum response). […] Each compound concentration series occurred one time in each plate, and replicates from two or three plates were used in each experimental run. Thallium solutions were handled and disposed of according to guidelines from the Vanderbilt University Chemical Safety department.
Data were normalized using a static ratio function (F/F0) by dividing every fluorescent measurement by the initial fluorescent value for the corresponding well. The increase in signal resulting from the glutamate/thallium addition of the second add was measured by determining the slope from 3 seconds to 13 seconds after the addition. The average of all baseline slopes (no compound, no glutamate) was determined and this value was subtracted from all other slope values. The average of all ECmax slopes was determined and this value was used to normalize the baseline-corrected slopes to a percent max value (% Emax).

Compared with O=C1CC2(CN1)CN(c1cc(-c3ccc(F)cc3F)cc3c1CNC3=O)C2 [Compound A20, 6-(2,4-difluorophenyl)-4-(7-oxo-2,6-diazaspiro[3.4]octan-2-yl)isoindolin-1-one], O=C1NCc2c1cc(-c1ccc(F)cc1F)cc2N1CC(O)(C(F)(F)F)C1 [Compound A19, 6-(2,4-difluorophenyl)-4-(3-hydroxy-3-(trifluoromethyl)azetidin-1-yl)isoindolin-1-one] is 4.3-fold higher in IC50: 286 nM for the first, 1220 nM for the second.

First: Cn1cc(-c2cc(-c3ccc(F)cc3F)cc3c2CNC3=O)cc1C#N [Compound 14, 4-(6-(2,4-difluorophenyl)-1-oxoisoindolin-4-yl)-1-methyl-1H-pyrrole-2-carbonitrile]
Second: N#Cc1ccc(-c2cc(-c3ccc(F)cc3F)cc3c2CNC3=O)cn1 [Compound 33, 5-(6-(2,4-difluorophenyl)-1-oxoisoindolin-4-yl)picolinonitrile]
The IC50 of the first is 2-fold higher: 3080 nM for the first, 1540 nM for the second.

Cc1cnn(C)c1-c1cc(C2=CCOCC2)cc2c1CNC2=O [Compound 94, 6-(3,6-dihydro-2H-pyran-4-yl)-4-(1,4-dimethyl-1H-pyrazol-5-yl)isoindolin-1-one] and Cc1c(-c2cc(C3=CCOCC3)cc3c2CNC3=O)cnn1C [Compound 93, 6-(3,6-dihydro-2H-pyran-4-yl)-4-(1,5-dimethyl-1H-pyrazol-4-yl)isoindolin-1-one] are within 1.5-fold of each other in IC50: 340 nM for the first, 258 nM for the second.

Going from Cc1ccncc1-c1cc(-c2ccc(F)cc2F)cc2c1CNC2=O [Compound 89, 6-(2,4-difluorophenyl)-4-(4-methylpyridin-3-yl)isoindolin-1-one] to O=C1NCc2c1cc(-c1ccc(F)cc1F)cc2-c1ccc2cnccc2c1 [Compound 23, 6-(2,4-difluorophenyl)-4-(isoquinolin-6-yl)isoindolin-1-one], the IC50 rises from 118 nM to 1380 nM (12-fold). The first is the more potent here.

Going from Cc1sc(C)c(-c2cc(-c3ccc(F)cc3F)cc3c2CNC3=O)c1C [Compound 20, 6-(2,4-difluorophenyl)-4-(2,4,5-trimethylthiophen-3-yl)isoindolin-1-one] to COc1cc(-c2cc(-c3ccc(F)cc3F)cc3c2CNC3=O)cc(C)n1 [Compound 91, 6-(2,4-difluorophenyl)-4-(2-methoxy-6-methylpyridin-4-yl)isoindolin-1-one], the IC50 falls from 5260 nM to 433 nM (12-fold).

Going from O=C1NCc2c1cc(-c1c(F)cc(F)cc1F)cc2-c1cnsc1 [Compound 45, 4-(isothiazol-4-yl)-6-(2,4,6-trifluorophenyl)isoindolin-1-one] to O=C1NCc2c1cc(-c1cc(F)c(F)c(F)c1)cc2-c1cnsc1 [Compound 59, 4-(isothiazol-4-yl)-6-(3,4,5-trifluorophenyl)isoindolin-1-one], the IC50 rises from 2070 nM to > 10000 nM. The first is the more potent here.

Compared with O=C1NCc2c1cc(-c1ccc(F)cc1F)cc2-c1ccc2ccncc2c1 [Compound 26, 6-(2,4-difluorophenyl)-4-(isoquinolin-7-yl)isoindolin-1-one], O=C1NCc2c1cc(-c1ccc(F)cc1F)cc2-c1ccc2ncccc2c1 [Compound 24, 6-(2,4-difluorophenyl)-4-(quinolin-6-yl)isoindolin-1-one] is 1.6-fold lower in IC50: 2690 nM for the first, 1660 nM for the second.

Going from O=C1NCc2c1cc(-c1ccc(F)cc1F)cc2C1=CCCCO1 [Compound B9, 6-(2,4-difluorophenyl)-4-(3,4-dihydro-2H-pyran-6-yl)isoindolin-1-one] to O=C1NCc2c1cc(-c1ccc(F)cc1F)cc2C1CCCCO1 (centres unmarked) [Compound B10, 6-(2,4-difluorophenyl)-4-(tetrahydro-2H-pyran-2-yl)isoindolin-1-one], the IC50 falls from 853 nM to 329 nM (2.6-fold). The second is the more potent here.

O=Cc1ccc(-c2cc3c(c(-c4cnsc4)c2)CNC3=O)c(F)c1F [Compound 58, 2,3-difluoro-4-(7-(isothiazol-4-yl)-3-oxoisoindolin-5-yl)benzaldehyde] and Cc1cc(-c2cc3c(c(-c4cnsc4)c2)CNC3=O)c(F)cc1F [Compound 50, 6-(2,4-difluoro-5-methylphenyl)-4-(isothiazol-4-yl)isoindolin-1-one] cannot be ordered by IC50: > 10000 nM for the first, > 10000 nM for the second.

Compared with Cc1cc(-c2cc3c(c(-c4cnsc4)c2)CNC3=O)c(F)cn1 [Compound 61, 6-(5-fluoro-2-methylpyridin-4-yl)-4-(isothiazol-4-yl)isoindolin-1-one], COc1ccc(-c2cc3c(c(-c4cnsc4)c2)CNC3=O)c(F)c1 [Compound 44, 6-(2-fluoro-4-methoxyphenyl)-4-(isothiazol-4-yl)isoindolin-1-one] is 3-fold higher in IC50: 1190 nM for the first, 3560 nM for the second. The first is the more potent here.

First: O=C1NCc2c1cc(-c1ccc(F)cc1F)cc2-c1cncnc1 [Compound 37, 6-(2,4-difluorophenyl)-4-(pyrimidin-5-yl)isoindolin-1-one]
Second: O=C1NCc2c1cc(-c1ccc(F)cc1F)cc2-c1cnn(C(F)F)c1 [Compound 8, 4-(1-(difluoromethyl)-1H-pyrazol-4-yl)-6-(2,4-difluorophenyl)isoindolin-1-one]
The IC50 of the first is lower: 950 nM for the first, > 10000 nM for the second.

Going from O=C1NCc2c(CN3CC4CCC(C3)O4)cc(-c3ccc(F)cc3F)cc21 [Compound B7, 4-((8-oxa-3-azabicyclo[3.2.1]octan-3-yl)methyl)-6-(2,4-difluorophenyl)isoindolin-1-one] to O=C1NCc2c(CN3CC(O)(C(F)(F)F)C3)cc(-c3ccc(F)cc3F)cc21 [Compound B8, 6-(2,4-difluorophenyl)-4-((3-hydroxy-3-(trifluoromethyl)azetidin-1-yl)methyl)isoindolin-1-one], the IC50 falls from 292 nM to 193 nM (1.5-fold).

Compared with Cc1nn(C)c(C)c1-c1cc(C2CCOCC2)cc2c1CNC2=O [Compound 98, 6-(tetrahydro-2H-pyran-4-yl)-4-(1,3,5-trimethyl-1H-pyrazol-4-yl)isoindolin-1-one], Cc1c(-c2cc(C3CCOCC3)cc3c2CNC3=O)cnn1C [Compound 99, 4-(1,5-dimethyl-1H-pyrazol-4-yl)-6-(tetrahydro-2H-pyran-4-yl)isoindolin-1-one] is 3-fold higher in IC50: 985 nM for the first, 2950 nM for the second.

Compared with N#Cc1ccc(-c2cc3c(c(-c4cnsc4)c2)CNC3=O)c(F)c1 [Compound 43, 3-fluoro-4-(7-(isothiazol-4-yl)-3-oxoisoindolin-5-yl)benzonitrile], COc1cc(F)ccc1-c1cc2c(c(-c3cnsc3)c1)CNC2=O [Compound 48, 6-(4-fluoro-2-methoxyphenyl)-4-(isothiazol-4-yl)isoindolin-1-one] is higher in IC50: 5070 nM for the first, > 10000 nM for the second. The first is the more potent here.

Cc1nn(C)c(C)c1-c1cc(C2=CCOCC2)cc2c1CNC2=O [Compound 92, 6-(3,6-dihydro-2H-pyran-4-yl)-4-(1,3,5-trimethyl-1H-pyrazol-4-yl)isoindolin-1-one] and Cc1cc2n(n1)CCN2c1cc(-c2ccc(F)cc2F)cc2c1CNC2=O [Compound A23, 6-(2,4-difluorophenyl)-4-(6-methyl-2,3-dihydro-1H-imidazo[1,2-b]pyrazol-1-yl)isoindolin-1-one] are within 1.5-fold of each other in IC50: 424 nM for the first, 488 nM for the second.

In the case of O=C1NCc2c1cc(-c1ccc(F)cc1F)cc2-c1cnn(C2CCCCC2)c1 [Compound 21, 4-(1-cyclohexyl-1H-pyrazol-4-yl)-6-(2,4-difluorophenyl)isoindolin-1-one], the “Human mGlu2 GIRK IC50 (nM)” value is reported as “Inactive”.
With N#Cc1c(F)cc(-c2cc3c(c(-c4cnsc4)c2)CNC3=O)cc1F [Compound 57, 2,6-difluoro-4-(7-(isothiazol-4-yl)-3-oxoisoindolin-5-yl)benzonitrile] the “Human mGlu2 GIRK IC50 (nM)” value was “Inactive”.
For COc1cc(C#N)ccc1-c1cc2c(c(-c3cnsc3)c1)CNC2=O [Compound 53, 4-(7-(isothiazol-4-yl)-3-oxoisoindolin-5-yl)-3-methoxybenzonitrile], the “Human mGlu2 GIRK IC50 (nM)” value was “Inactive”.
For COc1cc(F)c(-c2cc3c(c(-c4cnsc4)c2)CNC3=O)cc1F [Compound 52, 6-(2,5-difluoro-4-methoxyphenyl)-4-(isothiazol-4-yl)isoindolin-1-one], the “Human mGlu2 GIRK IC50 (nM)” value was “Inactive”.
O=C1NCc2c1cc(-c1ccc(F)cc1F)cc2-c1cc2ccccc2s1 [Compound 28, 4-(benzo[b]thiophen-2-yl)-6-(2,4-difluorophenyl)isoindolin-1-one] was tested, and the “Human mGlu2 GIRK IC50 (nM)” value was “Inactive”.
